Assay results taken from patent US20230031406A1, “COMPOUNDS AND COMPOSITIONS FOR TREATING CONDITIONS ASSOCIATED WITH NLRP ACTIVITY” (Novartis AG, priority 2018, published 2023).
pIC50: −log10 of the molar value. Read-outs that look alike come from different tables or passages of the source. Each block holds one molecule with its values, some of them ahead of it.

Test system: PMA-differentiated THP-1 cells
Assay: IL-1β production in PMA-differentiated THP-1 cells stimulated with gramicidin (hTHP-1 assay containing 2% fetal bovine serum; Procedures 1 and 2)
Type: cell-based, human
Details: 2% fetal bovine serum
Outline: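 THP-1 cells were differentiated with PMA (20 ng/ml, 16-18 h), detached, and plated at 50,000 cells/well in RPMI 1640 with 2% FBS. They were pre-treated with compound (0.0017–100 μM, 0.37% DMSO) for 1 h, then stimulated with gramicidin (5 μM) for 2 h. Supernatant IL-1β was measured by HTRF.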

[1] = Table B2, class symbols, read-out: hTHP-1 IC50
[2] = Homo sapiens, THP-1, Table B1, class symbols, read-out: Average IC50 of compounds in hTHP-1 assay: hTHP-1 IC50
[3] = Homo sapiens, THP-1, Table B3, hTHP-1 assay, class symbols, read-out: IC50
[4] = Table B3, hTHP-1 assay, class symbols, read-out: IC50
[5] = Homo sapiens, THP-1, Table B2, numeric bounds, read-out: hTHP-1 IC50
[6] = Homo sapiens, THP-1, Table B2, class symbols, read-out: hTHP-1 IC50

Structure (SMILES): CC(C)(O)c1ncc(S(N)(=O)=NC(=O)Nc2c3c(nc4c2CCC42CC2)CCC3)s1 (stereo not shown) [Compound 136, 2-(2-hydroxypropan-2-yl)-N′-((1′,5′,6′,7′-tetrahydro-2′H-spiro[cyclopropane-1,3′-dicyclopenta[b,e]pyridin]-8′-yl)carbamoyl)thiazole-5-sulfonimidamide]
pIC50 [2]: 6.70 to 7.40

Structure (SMILES): C[C@](O)(CO)c1cc(F)c(S(N)(=O)=NC(=O)Nc2c3c(nc4c2CCC42CC2)CCC3)s1 (stereo partly drawn) [Example 608, 5-((S)-1,2-dihydroxypropan-2-yl)-3-fluoro-N′-((1′,5′,6′,7′-tetrahydro-2′H-spiro[cyclopropane-1,3′-dicyclopenta[b,e]pyridin]-8′-yl)carbamoyl)thiophene-2-sulfonimidamide]
pIC50 [3]: 6.70 to 7.40

Structure (SMILES): CCn1cc(F)c(S(N)(=O)=NC(=O)Nc2c3c(nc4c2CCC4(C)C)CCC3)n1 (single isomer, unassigned) [Example 715, (R) or (S)-N′-((3,3-dimethyl-1,2,3,5,6,7-hexahydrodicyclopenta[b,e]pyridin-8-yl)carbamoyl)-1-ethyl-4-fluoro-1H-pyrazole-3-sulfonimidamide]
pIC50 [4]: > 8.10

Structure (SMILES): NS(=O)(=NC(=O)Nc1c2c(nc(C(F)(F)F)c1C1CC1)CCC2)c1nn(C(F)F)cc1F (single isomer, unassigned) [Example 776, (S) or (R)-N′-((3-cyclopropyl-2-(trifluoromethyl)-6,7-dihydro-5H-cyclopenta[b]pyridin-4-yl)carbamoyl)-1-(difluoromethyl)-4-fluoro-1H-pyrazole-3-sulfonimidamide]
pIC50 (Table B4, class symbols, read-out: hTHP-1 IC50): 4.52 to 5.30

Structure (SMILES): COCc1nc(C(C)(C)O)sc1S(N)(=O)=NC(=O)Nc1c2c(nc3c1CCC3)CCC2 (stereo not shown) [Compound 689, N′-((1,2,3,5,6,7-hexahydrodicyclopenta[b,e]pyridin-8-yl)carbamoyl)-2-(2-hydroxypropan-2-yl)-4-(methoxymethyl)thiazole-5-sulfonimidamide]
pIC50 [6]: 5.30 to 6.00

Structure (SMILES): CCn1ccc(S(N)(=O)=NC(=O)Nc2c(C)c(C(F)(F)F)nc3c2CCC3)n1 (single isomer, unassigned) [Example 692, (S) or (R)-1-Ethyl-N′-((3-methyl-2-(trifluoromethyl)-6,7-dihydro-5H-cyclopenta[b]pyridin-4-yl)carbamoyl)-1H-pyrazole-3-sulfonimidamide]
pIC50 [4]: 4.52 to 5.30

Structure (SMILES): Cc1c(C(F)(F)F)nc2c(c1NC(=O)N=S(N)(=O)c1ccn(C)n1)CCC2 (single isomer, unassigned) [Example 693, (R) or (S)-1-Methyl-N′-((3-methyl-2-(trifluoromethyl)-6,7-dihydro-5H-cyclopenta[b]pyridin-4-yl)carbamoyl)-1H-pyrazole-3-sulfonimidamide]
pIC50 [3]: 5.30 to 6.00

Structure (SMILES): CC(O)c1csc([S@](N)(=O)=NC(=O)Nc2c3c(nc4c2CC[C@H]4C)CCC3)c1 (stereo partly drawn) [Example 582, (R)-4-(1-hydroxyethyl)-N′-(((R)-3-methyl-1,2,3,5,6,7-hexahydrodicyclopenta[b,e]pyridin-8-yl)carbamoyl)thiophene-2-sulfonimidamide]
pIC50 [3]: 6.70 to 7.40

Structure (SMILES): NS(=O)(=NC(=O)Nc1c2c(nc(C3CC3)c1C1CC1)CCC2)c1ccn(C(F)F)n1 (stereo not shown) [Example 571, N′-((2,3-dicyclopropyl-6,7-dihydro-5H-cyclopenta[b]pyridin-4-yl)calbamoyl)-1-(difluoromethyl)-1H-pymzole-3-sulfonimidamide]
pIC50 [3]: 5.30 to 6.00

Structure (SMILES): C[C@](O)(CO)c1cc(F)c([S@@](N)(=O)=NC(=O)Nc2c3c(nc4c2CCC42CC2)CCC3)s1 [Example 677, (S)-5-((S)-1,2-dihydroxypropan-2-yl)-3-fluoro-N′-((1′,5′,6′,7′-tetrahydro-2′H-spiro[cyclopropane-1,3′-dicyclopenta[b,e]pyridin]-8′-yl)carbamoyl)thiophene-2-sulfonimidamide]
pIC50 [3]: 4.52 to 5.30

Structure (SMILES): CC(C)(O)c1ncc(S(N)(=O)=NC(=O)Nc2c3c([n+]([O-])c4c2CCC4)CCC3)s1 (stereo not shown) [Compound 146, 8-(3-(amino(2-(2-hydroxypropan-2-yl)thiazol-5-yl)(oxo)-λ6-sulfaneylidene)ureido)-1,2,3,5,6,7-hexahydrodicyclopenta[b,e]pyridine 4-oxide]
pIC50 [2]: 4.52 to 5.30

Structure (SMILES): CC(C)c1ncc(F)c(C(C)C)c1NC(=O)N=S(N)(=O)c1sc(C(C)(C)O)cc1F (single isomer, unassigned) [Compound 106a, (R) or (S)-3-fluoro-N′-((5-fluoro-2,4-diisopropylpyridin-3-yl)carbamoyl)-5-(2-hydroxypropan-2-yl)thiophene-2-sulfonimidamide]
pIC50 (Table B1, class symbols, read-out: Average IC50 of compounds in hTHP-1 assay: hTHP-1 IC50): 6.70 to 7.40

Structure (SMILES): Cc1nc2c(c(NC(=O)N=[S@@](N)(=O)c3cnc(C(C)(C)O)s3)c1C1CC1)CCC2 [Example 581, (R)-N′-((3-cyclopropyl-2-methyl-6,7-dihydro-5H-cyclopenta[b]pyridin-4-yl)carbamoyl)-2-(2-hydroxypropan-2-yl)thiazole-5-sulfonimidamide]
pIC50 (Homo sapiens, THP-1, Table B3, hTHP-1 assay, numeric values, read-out: IC50): < 4.52

Structure (SMILES): CC(C)(O)c1ncc([S@](N)(=O)=NC(=O)Nc2c3c(nc(CC(F)(F)F)c2C2CC2)CCC3)s1 [Example 578, (R)-N′-((3-cyclopropyl-2-(2,2,2-trifluoroethyl)-6,7-dihydro-5H-cyclopenta[b]pyridin-4-yl)carbamoyl)-2-(2-hydroxypropan-2-yl)thiazole-5-sulfonimidamide]
pIC50 [3]: 5.30 to 6.00

Other lines, results leading:

pIC50 [1]: 4.52 to 5.30
Structure (SMILES): CCc1nc2c(c(NC(=O)N=S(N)(=O)c3sc(C(C)(C)O)cc3F)c1C1CC1)CCC2 (single isomer, unassigned) [Compound 631a, (S) or (R)-N′-((3-cyclopropyl-2-ethyl-6,7-dihydro-5H-cyclopenta[b]pyridin-4-yl)carbamoyl)-3-fluoro-5-(2-hydroxypropan-2-yl)thiophene-2-sulfonimidamide]

pIC50 [5]: < 4.52
Structure (SMILES): CC(C)(O)c1cccc(S(N)(=O)=NC(=O)Nc2c3c(nc4c2CCC4)CCC3)c1 (single isomer, unassigned) [Compound 625a, (S) or (R)-N′-((1,2,3,5,6,7-hexahydrodicyclopenta [b,e]pyridin-8-yl)carbamoyl)-3-(2-hydroxypropan-2-yl)benzene-sulfonimidamide]

pIC50 [5]: < 4.52
Structure (SMILES): Cc1c(C2CCC2)nc2c(c1NC(=O)N=S(N)(=O)c1cc(C(C)(C)O)cs1)CCC2 (single isomer, unassigned) [Compound 658a, (S) or (R)-N′-((2-cyclobutyl-3-methyl-6,7-dihydro-5H-cyclopenta[b]pyridin-4-yl)carbamoyl)-4-(2-hydroxypropan-2-yl)thiophene-2-sulfonimidamide]

pIC50 [5]: < 4.52
Structure (SMILES): CCC1CCc2c1nc1c(c2NC(=O)N=S(N)(=O)c2cnc(C(C)(C)O)s2)CCC1 (single isomer, unassigned) [Compound 662b, (S, R) or (S, S) or (R, S) or (R, R)-N′-((3-Ethyl-1,2,3,5,6,7-hexaliydrodicyclopenta [b,e]pyridin-8-yl)caibamoyl)-2-(2-hydroxypropan-2-yl)thiazole-5-sulfonimidamide]

pIC50 [1]: 5.30 to 6.00
Structure (SMILES): CC1CCc2c1nc1c(c2NC(=O)N=S(N)(=O)c2cnn(C(C)C)c2)CCC1 (single isomer, unassigned) [Compound 171c, (R, R) and (R, S) or (S, R) and (S, S)-1-Isopropyl-N′-((3-methyl-1,2,3,5,6,7-hexahydrodicyclopenta [b,e]pyridin-8-yl)carbamoyl)-1H-pyrazole-4-sulfonimidamide]

pIC50 [3]: 6.00 to 6.70
Structure (SMILES): CC1(C)CCc2c1nc1c(c2NC(=O)N=S(N)(=O)c2sc(C(O)(CO)CO)nc2CO)CCC1 (stereo not shown) [Compound 985b]

pIC50 [1]: 5.30 to 6.00
Structure (SMILES): CC(C)c1cnc(F)c(C(C)C)c1NC(=O)N=S(N)(=O)c1cnc(C(C)(C)O)s1 (single isomer, unassigned) [Compound 115b, (R) or (S)-N′-((2-fluoro-3,5-diisopropylpyridin-4-yl)carbamoyl)-2-(2-hydroxypropan-2-yl)thiazole-5-sulfonimidamide]

pIC50 [6]: 6.00 to 6.70
Structure (SMILES): N[S@@](=O)(=NC(=O)Nc1c2c(nc(C3CC3)c1C1CC1)CCC2)c1ccn(C(F)F)n1 [Compound 728b]

pIC50 [1]: 6.70 to 7.40
Structure (SMILES): CCc1nc2c(c(NC(=O)N=S(N)(=O)c3sc(C(C)(C)O)cc3F)c1C1CC1)CCC2 (single isomer, unassigned) [Compound 631b, (R) or (S)-N′-((3-cyclopropyl-2-ethyl-6,7-dihydro-5H-cyclopenta[b]pyridin-4-yl)carbamoyl)-3-fluoro-5-(2-hydroxypropan-2-yl)thiophene-2-sulfonimidamide]

pIC50 (Homo sapiens, THP-1, Table B1, numeric bounds, read-out: Average IC50 of compounds in hTHP-1 assay: hTHP-1 IC50): < 4.52
Structure (SMILES): CC1CCc2c1nc1c(c2NC(=O)N=S(N)(=O)c2ccc(CN(C)C)cc2)CCC1 (single isomer, unassigned) [Compound 134aa, (S,S) or (S,R)-4-((di-methylamino)methyl)-N′-((3-methyl-1,2,3,5,6,7-hexahydrodicyclo-penta[b,e]pyridin-8-yl)carbamoyl)benzene-sulfonimidamide]

pIC50 [5]: < 4.52
Structure (SMILES): CC(C)(O)c1ccnc(S(N)(=O)=NC(=O)Nc2c3c(nc4c2CCC4(C)C)CCC3)c1 (single isomer, unassigned) [Compound 620a, (S) or (R)-N′-((3,3-dimethyl-1,2,3,5,6,7-hexahydrodicyclopenta [b,e]pyridin-8-yl)carbamoyl)-4-(2-hydroxypropan-2-yl)pyridine-2-sulfonimidamide]
